{"source": "ChEMBL document CHEMBL1201862", "about": "“PubChem BioAssay data set” (2004)", "key": {"P388": {"test_system": "P388", "experiment": "cells", "type": "functional", "conditions": "Mus musculus"}, "P388/ADR": {"test_system": "P388/ADR", "experiment": "cells", "type": "functional", "conditions": "Mus musculus"}, "SN12K1": {"test_system": "SN12K1", "experiment": "cells", "type": "functional", "conditions": "Homo sapiens"}, "[1]": {"experiment": "off-target signal loss in HeLa-CEM21 co-culture – HeLa F-luc CTL cells, cherry-picked, counter-screen for HIV-1 Env fusion inhibitor project, dose response (AID 652040);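 also: potency for signal decrease marking cytotoxic or nonspecific inhibition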", "type": "functional, cell-based"}, "[2]": {"experiment": "blockers of HIV-1 ZM109 envelope-driven cell-cell fusion – HeLa effector, CEM target cells, luciferase, cherry-pick, dose response (AID 652058)", "type": "functional, cell-based"}, "[3]": {"experiment": "HIV-1 AD8 envelope cell-cell fusion blockers – cherry-pick, dose response (AID 652062);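 also: potency is for inhibitors of fusion seen as a drop in luminescence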", "type": "functional, cell-based"}, "[4]": {"experiment": "blockers of HIV-1 envelope-mediated cell-cell fusion – cherry-pick, dose response (AID 652057)", "type": "functional, cell-based"}, "HEK293": {"test_system": "HEK293", "experiment": "EBV LMP1 TES2 canonical NF-kB signalling blockers – cell-based, HEK293, luciferase, cherry-pick, dose response (AID 588343)", "type": "functional", "conditions": "Homo sapiens"}, "[5]": {"experiment": "blockade of melanocortin 4 receptor signaling – cell-based, plate reader, cherry pick, counter-screen for LGR2 antagonist project, dose response (AID 743444);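 also: transfected HEK 293 cells stimulated with alpha-MSH peptide; potency of inhibitors of the alpha-MSH evoked signal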", "type": "functional"}, "[6]": {"experiment": "blockers of bursicon-stimulated LGR2 cAMP reporter – cell-based, HEK293, CRE-luciferase reporter, cherry pick, set 2, dose response (AID 743343);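 also: transfected cells were stimulated with diluted bursicon conditioned medium after compound addition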", "type": "functional"}, "[7]": {"target": "T1, DNA repair protein RAD52 homolog (Homo sapiens, UniProt P43351)", "T1 sequence (P43351 whole entry)": "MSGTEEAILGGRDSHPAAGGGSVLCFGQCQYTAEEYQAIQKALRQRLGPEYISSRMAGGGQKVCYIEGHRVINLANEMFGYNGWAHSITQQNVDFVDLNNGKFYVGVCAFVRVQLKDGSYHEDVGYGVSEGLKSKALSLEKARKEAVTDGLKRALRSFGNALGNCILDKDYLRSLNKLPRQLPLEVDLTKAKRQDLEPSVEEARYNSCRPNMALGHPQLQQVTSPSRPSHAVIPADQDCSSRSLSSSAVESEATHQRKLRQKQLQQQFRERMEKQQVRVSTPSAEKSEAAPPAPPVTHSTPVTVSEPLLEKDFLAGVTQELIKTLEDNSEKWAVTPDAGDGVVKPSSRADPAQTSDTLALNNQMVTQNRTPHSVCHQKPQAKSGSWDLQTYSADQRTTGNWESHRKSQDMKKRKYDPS", "type": "functional, biochemical"}, "[8]": {"experiment": "reduction of Shn3 3'UTR-driven luciferase in osteoblasts – cell-based, Clone20 osteoblasts, firefly luciferase, cherry-picked, dose response (AID 624132)", "type": "functional"}, "cells [9]": {"experiment": "cells", "type": "functional, cell-based"}, "[10]": {"experiment": "non-specific 3'UTR reporter inhibition in Clone20-Shn3RL – cell-based, Renilla luciferase, cherry-picked, counter-screen for Shn3 inhibitor project, dose response (AID 624133)", "type": "functional"}, "[11]": {"experiment": "NIH3T3 cell viability loss – ATP luminescence, mouse fibroblasts, counter-screen, dose response (AID 2010);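 also: cells exposed to compound for about 90 hours before reading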", "type": "functional, cell-based"}, "cells [12]": {"experiment": "cells", "type": "functional, cell-based", "remark": "listed apart in the source"}, "[13]": {"experiment": "Trypanosoma cruzi growth suppression in host cells – NIH3T3 host cells, beta-gal luminescence, confirmation (AID 2044);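 also: intracellular parasites grown in NIH/3T3 mouse fibroblasts as host cells; luminescent beta-galactosidase reporter signal from transgenic T. cruzi replicating inside host cells; inhibitors lower the luminescence signal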", "type": "functional, cell-based"}, "[14]": {"experiment": "loss of viability in HepG2 cells – cell-based, CellTiter-Glo, cherry-picked, cytotoxicity control for Shn3 inhibitor project, dose response (AID 624134)", "type": "functional"}, "Streptococcus": {"test_system": "Streptococcus", "experiment": "GAS UMAA2166 growth inhibition – luminescence, BacTiterGlo, counter-screen for streptokinase expression inhibitor project, dose response (AID 1915);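 also: potency for reduction of bacterial viability or growth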", "type": "functional, organism-based"}, "[15]": {"test_system": "Streptococcus sp. 'group A'", "experiment": "Streptococcus pyogenes SK(-)GAS viability under kanamycin – luminescence, BacTiterGlo, confirmation, counter-screen for streptokinase expression inhibitor project, dose response (AID 1900)", "type": "functional, organism-based"}, "Cytochrome P450 2D6": {"target": "Cytochrome P450 2D6 (Homo sapiens, UniProt P10635)", "sequence (P10635 whole entry)": "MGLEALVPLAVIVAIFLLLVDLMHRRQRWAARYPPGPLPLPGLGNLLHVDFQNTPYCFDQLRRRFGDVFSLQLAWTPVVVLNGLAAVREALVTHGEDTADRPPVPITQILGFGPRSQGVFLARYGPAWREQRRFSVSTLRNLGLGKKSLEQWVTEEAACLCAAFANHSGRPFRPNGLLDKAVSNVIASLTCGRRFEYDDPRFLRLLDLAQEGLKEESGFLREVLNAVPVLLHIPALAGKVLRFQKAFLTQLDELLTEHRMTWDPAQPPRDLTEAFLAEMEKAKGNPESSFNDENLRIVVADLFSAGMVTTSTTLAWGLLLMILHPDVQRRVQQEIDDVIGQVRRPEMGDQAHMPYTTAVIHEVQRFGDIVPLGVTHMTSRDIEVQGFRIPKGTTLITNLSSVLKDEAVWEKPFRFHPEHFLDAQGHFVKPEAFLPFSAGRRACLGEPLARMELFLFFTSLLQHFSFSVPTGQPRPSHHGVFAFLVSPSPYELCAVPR"}, "[16]": {"experiment": "Luminescence Cell-Based Dose Retest to Confirm Inhibitors of Cancer Stem Cells. [Related pubchem assays (depositor defined):AID2717, AID2721]", "type": "functional", "conditions": "Homo sapiens"}, "Streptokinase A": {"target": "T2, Streptokinase A (Streptococcus pyogenes serotype M1, UniProt P10520)", "T2 sequence (P10520 whole entry)": "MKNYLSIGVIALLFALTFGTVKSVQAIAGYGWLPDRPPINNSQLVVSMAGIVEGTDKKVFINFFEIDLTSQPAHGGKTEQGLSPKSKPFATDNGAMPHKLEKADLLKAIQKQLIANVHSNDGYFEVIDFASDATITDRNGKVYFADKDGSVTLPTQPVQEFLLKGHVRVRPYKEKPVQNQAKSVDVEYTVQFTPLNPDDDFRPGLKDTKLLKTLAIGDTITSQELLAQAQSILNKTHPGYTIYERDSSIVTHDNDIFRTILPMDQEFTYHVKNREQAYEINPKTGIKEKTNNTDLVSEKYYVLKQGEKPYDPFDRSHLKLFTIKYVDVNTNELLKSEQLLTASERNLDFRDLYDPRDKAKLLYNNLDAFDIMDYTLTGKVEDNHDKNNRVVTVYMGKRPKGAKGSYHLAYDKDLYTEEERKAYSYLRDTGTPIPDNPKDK", "experiment": "viability-normalized secreted streptokinase activity reduction – plasminogen activation absorbance, OD405, dose response (AID 1914)", "type": "functional, Streptococcus pyogenes M1 GAS"}, "Cytochrome P450 1A2": {"target": "T3, Cytochrome P450 1A2 (Homo sapiens, UniProt P05177)", "T3 sequence (P05177 whole entry)": "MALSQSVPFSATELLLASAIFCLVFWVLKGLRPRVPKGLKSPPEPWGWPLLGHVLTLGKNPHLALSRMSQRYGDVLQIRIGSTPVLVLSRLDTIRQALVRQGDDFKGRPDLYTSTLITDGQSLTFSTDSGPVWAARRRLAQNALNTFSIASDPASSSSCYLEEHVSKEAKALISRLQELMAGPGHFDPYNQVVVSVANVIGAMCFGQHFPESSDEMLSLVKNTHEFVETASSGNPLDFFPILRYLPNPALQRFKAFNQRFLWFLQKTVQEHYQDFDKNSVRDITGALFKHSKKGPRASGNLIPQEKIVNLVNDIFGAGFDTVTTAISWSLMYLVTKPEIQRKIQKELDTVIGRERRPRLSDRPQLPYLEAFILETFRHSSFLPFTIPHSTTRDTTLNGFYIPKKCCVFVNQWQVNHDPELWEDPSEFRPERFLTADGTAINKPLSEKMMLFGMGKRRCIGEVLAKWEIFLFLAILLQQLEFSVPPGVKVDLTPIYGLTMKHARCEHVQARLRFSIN"}, "[17]": {"target": "T4, Polyadenylate-binding protein 1 (Homo sapiens, UniProt P11940)", "T4 sequence (P11940 whole entry)": "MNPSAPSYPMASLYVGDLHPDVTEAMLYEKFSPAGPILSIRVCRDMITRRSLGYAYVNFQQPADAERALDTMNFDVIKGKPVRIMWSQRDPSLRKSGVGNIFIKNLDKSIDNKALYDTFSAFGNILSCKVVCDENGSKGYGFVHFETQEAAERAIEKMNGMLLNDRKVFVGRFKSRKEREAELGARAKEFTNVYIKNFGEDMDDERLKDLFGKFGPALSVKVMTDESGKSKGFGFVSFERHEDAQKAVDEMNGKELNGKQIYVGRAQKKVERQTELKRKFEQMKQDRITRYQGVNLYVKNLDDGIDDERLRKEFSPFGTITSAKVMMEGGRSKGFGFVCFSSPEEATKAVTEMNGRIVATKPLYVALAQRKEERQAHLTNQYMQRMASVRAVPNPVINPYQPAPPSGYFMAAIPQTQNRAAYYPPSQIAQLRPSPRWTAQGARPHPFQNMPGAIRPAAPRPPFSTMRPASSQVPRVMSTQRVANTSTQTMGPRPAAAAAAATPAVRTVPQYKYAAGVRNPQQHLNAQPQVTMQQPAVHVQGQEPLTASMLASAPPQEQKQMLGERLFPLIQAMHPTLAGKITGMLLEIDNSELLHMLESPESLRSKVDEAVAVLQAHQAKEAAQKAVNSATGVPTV", "experiment": "MLLE binding blockers, Cy5 peptide tracer – biochemical, fluorescence polarization, Cy5-PAM2 peptide, secondary, miRNA deadenylation inhibitor project, dose response (AID 602260)", "type": "functional", "conditions": "read-out: IC50_Mean"}, "[18]": {"target": "T4, Polyadenylate-binding protein 1", "experiment": "MLLE domain peptide-binding blockers, IC50 – biochemical, fluorescence polarization, FITC-PAM2 peptide, dose response (AID 602259)", "type": "functional", "conditions": "read-out: IC50_Mean"}, "Cytochrome P450 3A4": {"target": "Cytochrome P450 3A4 (Homo sapiens, UniProt P08684)", "sequence (P08684 whole entry)": "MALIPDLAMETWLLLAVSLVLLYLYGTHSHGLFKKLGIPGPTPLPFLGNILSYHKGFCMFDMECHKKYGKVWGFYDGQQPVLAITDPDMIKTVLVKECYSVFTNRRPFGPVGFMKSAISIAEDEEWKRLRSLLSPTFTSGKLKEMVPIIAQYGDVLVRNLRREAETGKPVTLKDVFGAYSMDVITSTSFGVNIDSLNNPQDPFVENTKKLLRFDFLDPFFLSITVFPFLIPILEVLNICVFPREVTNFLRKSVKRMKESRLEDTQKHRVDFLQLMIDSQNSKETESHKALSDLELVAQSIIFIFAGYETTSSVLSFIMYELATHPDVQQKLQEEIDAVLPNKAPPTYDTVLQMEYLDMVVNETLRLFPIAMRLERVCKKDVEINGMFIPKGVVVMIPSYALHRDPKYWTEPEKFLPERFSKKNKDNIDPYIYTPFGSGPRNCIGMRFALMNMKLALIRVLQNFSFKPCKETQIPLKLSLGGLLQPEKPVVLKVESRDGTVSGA"}, "Cytochrome P450 2C19": {"target": "Cytochrome P450 2C19 (Homo sapiens, UniProt P33261)", "sequence (P33261 whole entry)": "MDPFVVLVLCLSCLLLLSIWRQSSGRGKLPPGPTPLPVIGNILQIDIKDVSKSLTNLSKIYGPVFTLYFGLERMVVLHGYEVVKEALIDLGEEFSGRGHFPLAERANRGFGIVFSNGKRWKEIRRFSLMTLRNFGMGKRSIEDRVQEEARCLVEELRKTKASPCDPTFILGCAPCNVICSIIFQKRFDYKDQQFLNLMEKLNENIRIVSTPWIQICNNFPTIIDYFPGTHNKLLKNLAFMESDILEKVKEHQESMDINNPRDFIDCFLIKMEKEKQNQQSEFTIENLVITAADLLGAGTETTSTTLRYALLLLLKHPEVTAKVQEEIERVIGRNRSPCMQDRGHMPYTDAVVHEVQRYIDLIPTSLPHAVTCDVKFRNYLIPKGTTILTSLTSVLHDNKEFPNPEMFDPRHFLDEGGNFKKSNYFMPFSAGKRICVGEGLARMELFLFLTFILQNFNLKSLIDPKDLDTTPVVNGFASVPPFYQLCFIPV", "experiment": "Cytochrome panel assay with activity outcomes. Panel member name: p450-cyp2c19 Compounds with AC50 equal or less than 10 uM are considered active", "type": "functional", "conditions": "read-out: AC50"}}, "note": "The source made the active and inactive calls.", "data": [{"smiles": "O=NN(CCF)C(=O)NC1CC2CCC1C2", "note": "(stereo unspecified)", "values": [{"measurement": "GI50", "setting": "P388", "result": "15.8 µM (inactive)"}, {"measurement": "GI50", "setting": "P388/ADR", "result": "24.5 µM (inactive)"}, {"measurement": "GI50", "setting": "SN12K1", "result": "> 100 µM (inactive)"}]}, {"smiles": "Cc1ccc(S(=O)(=O)N2CCC(=O)N(CCOCc3ccc(C(F)(F)F)cc3)CC2)cc1", "values": [{"measurement": "AC50", "setting": "[1]", "result": "14.6 µM (active)"}, {"measurement": "AC50", "setting": "[2]", "result": "3.68 µM (active)"}, {"measurement": "AC50", "setting": "[3]", "result": "6.53 µM (active)"}, {"measurement": "AC50", "setting": "[4]", "result": "5.79 µM (active)"}]}, {"smiles": "O=C(CN1C(=O)c2ccccc2S1(=O)=O)c1ccc(F)c(F)c1", "values": [{"measurement": "AC50", "setting": "HEK293", "result": "6.76 µM (active)"}, {"measurement": "AC50", "setting": "[5]", "result": "3.42 µM (active)"}, {"measurement": "AC50", "setting": "[6]", "result": "9.41 µM (active)"}]}, {"smiles": "CCCNc1nc(Cl)nc(NCc2cccnc2)n1", "values": [{"measurement": "AC50", "setting": "[7]", "result": "4.26 µM (active)"}]}, {"smiles": "O=C(NNC(=O)c1cccnc1SCc1cccc([N+](=O)[O-])c1)c1ccccn1", "values": [{"measurement": "AC50", "setting": "[8]", "result": "1.9 µM (active)"}, {"measurement": "EC50", "setting": "cells [9]", "result": "> 350 µM (not active)"}, {"measurement": "AC50", "setting": "[10]", "result": "1.32 µM (active)"}, {"measurement": "EC50", "setting": "[11]", "result": "1.65 µM (active)"}, {"measurement": "EC50", "setting": "cells [12]", "result": "27.8 µM (active)"}, {"measurement": "EC50", "setting": "[13]", "result": "0.994 µM (active)"}, {"measurement": "AC50", "setting": "[14]", "result": "7.84 µM (active)"}]}, {"smiles": "CCC/C=C(\\CCC)C(NS(=O)(=O)c1ccc(C(F)(F)F)cc1)c1ccccc1", "note": "(stereo unspecified)", "values": [{"measurement": "EC50", "setting": "Streptococcus", "result": "22.5 µM (active)"}, {"measurement": "EC50", "setting": "[15]", "result": "2.73 µM (active)"}, {"measurement": "AC50", "setting": "Cytochrome P450 2D6", "result": "20 µM (inconclusive)"}, {"measurement": "AC50", "setting": "[16]", "result": "3.36 µM (active)"}, {"measurement": "EC50", "setting": "Streptokinase A", "result": "2.24 µM (active)"}]}, {"smiles": "CCC(C)NC(=O)Cn1cnc2sc(C)cc2c1=O", "note": "(stereo unspecified)", "values": [{"measurement": "AC50", "setting": "Cytochrome P450 2D6", "result": "25.1 µM (inconclusive)"}, {"measurement": "AC50", "setting": "Cytochrome P450 1A2", "result": "6.31 µM (inconclusive)"}]}, {"smiles": "O=C(c1ccc2ncsc2c1)N1CCN(c2nc3ccccc3s2)CC1", "values": [{"measurement": "AC50", "setting": "[1]", "result": "3.19 µM (active)"}, {"measurement": "AC50", "setting": "[2]", "result": "8.38 µM (active)"}, {"measurement": "AC50", "setting": "[3]", "result": "8.65 µM (active)"}, {"measurement": "AC50", "setting": "[4]", "result": "4.18 µM (active)"}]}, {"smiles": "Cn1cc([N+](=O)[O-])c(C(=O)Nc2sc3c(c2C#N)CCC3)n1", "values": [{"measurement": "AC50", "setting": "[8]", "result": "0.88 µM (active)"}, {"measurement": "AC50", "setting": "[14]", "result": "8.93 µM (active)"}]}, {"smiles": "COc1ccc(C(N)=S)c(OC)c1", "values": [{"measurement": "IC50", "setting": "[17]", "result": "> 66 µM (inactive)"}, {"measurement": "IC50", "setting": "[18]", "result": "> 66 µM (inactive)"}, {"measurement": "AC50", "setting": "[7]", "result": "9.26 µM (active)"}]}, {"smiles": "CCNc1ncc2nc(-c3ccc(F)cc3)c(=O)n(-c3ccc(OC)cc3)c2n1", "values": [{"measurement": "AC50", "setting": "Cytochrome P450 2D6", "result": "0.158 µM (inconclusive)"}, {"measurement": "AC50", "setting": "Cytochrome P450 1A2", "result": "6.31 µM (inconclusive)"}, {"measurement": "AC50", "setting": "Cytochrome P450 3A4", "result": "20 µM (inconclusive)"}]}, {"smiles": "CC1(C)CC2(CCO1)OC(=O)CC2C(=O)NCCc1ccccc1", "note": "(stereo unspecified)", "values": [{"measurement": "AC50", "setting": "Cytochrome P450 2D6", "result": "22.4 µM (inconclusive)"}, {"measurement": "AC50", "setting": "Cytochrome P450 3A4", "result": "28.2 µM (inconclusive)"}, {"measurement": "AC50", "setting": "Cytochrome P450 2C19", "result": "25.1 µM (inconclusive)"}]}, {"smiles": "CCCCN1C2CCCC1CC(NC(=O)C1CCCCC1)C2", "note": "(stereo unspecified)", "values": [{"measurement": "AC50", "setting": "HEK293", "result": "237 µM (active)"}]}]}
